Measured values reported in article PMC9519552, “Activation of the human insulin receptor by non-insulin-related peptides” (Nature Communications, 2022).
pEC50, pIC50, pKi: −log10 of the molar value. Like-named read-outs stand apart in the source and are kept apart here. Positions of bridges follow the written chain, without caps; N, C: chain ends. Non-standard residues stand in square brackets, D forms with d. Residues, ends and D or L forms follow the SMILES beside them. *: point of attachment. X1 = NCc1ccc(CC(=O)*)cc1; PhAc = O=C(Cc1ccccc1)*; Aib = CC(C)(N)C(=O)O

Tests used:
human IR-A (holoIR-A) = molecular target: T1, human IR-A (holoIR-A) (Homo sapiens, UniProt P06213); assay: holoIR-A competitive radioligand binding assay (scintillation proximity assay); details: for pKi: primary peptide set, mean of 3 runs, read-out: IRA Binding Ki Mean; for weaker affinity for hIR-A than BHI: relative to biosynthetic human insulin
T1 construct: expressed in transfected cells; host or cells: HEK293 (ATCC #CRL-1573), stably transfected; membrane preparation
T1 sequence (P06213 28-1370 isoform P06213-2 limits assumed): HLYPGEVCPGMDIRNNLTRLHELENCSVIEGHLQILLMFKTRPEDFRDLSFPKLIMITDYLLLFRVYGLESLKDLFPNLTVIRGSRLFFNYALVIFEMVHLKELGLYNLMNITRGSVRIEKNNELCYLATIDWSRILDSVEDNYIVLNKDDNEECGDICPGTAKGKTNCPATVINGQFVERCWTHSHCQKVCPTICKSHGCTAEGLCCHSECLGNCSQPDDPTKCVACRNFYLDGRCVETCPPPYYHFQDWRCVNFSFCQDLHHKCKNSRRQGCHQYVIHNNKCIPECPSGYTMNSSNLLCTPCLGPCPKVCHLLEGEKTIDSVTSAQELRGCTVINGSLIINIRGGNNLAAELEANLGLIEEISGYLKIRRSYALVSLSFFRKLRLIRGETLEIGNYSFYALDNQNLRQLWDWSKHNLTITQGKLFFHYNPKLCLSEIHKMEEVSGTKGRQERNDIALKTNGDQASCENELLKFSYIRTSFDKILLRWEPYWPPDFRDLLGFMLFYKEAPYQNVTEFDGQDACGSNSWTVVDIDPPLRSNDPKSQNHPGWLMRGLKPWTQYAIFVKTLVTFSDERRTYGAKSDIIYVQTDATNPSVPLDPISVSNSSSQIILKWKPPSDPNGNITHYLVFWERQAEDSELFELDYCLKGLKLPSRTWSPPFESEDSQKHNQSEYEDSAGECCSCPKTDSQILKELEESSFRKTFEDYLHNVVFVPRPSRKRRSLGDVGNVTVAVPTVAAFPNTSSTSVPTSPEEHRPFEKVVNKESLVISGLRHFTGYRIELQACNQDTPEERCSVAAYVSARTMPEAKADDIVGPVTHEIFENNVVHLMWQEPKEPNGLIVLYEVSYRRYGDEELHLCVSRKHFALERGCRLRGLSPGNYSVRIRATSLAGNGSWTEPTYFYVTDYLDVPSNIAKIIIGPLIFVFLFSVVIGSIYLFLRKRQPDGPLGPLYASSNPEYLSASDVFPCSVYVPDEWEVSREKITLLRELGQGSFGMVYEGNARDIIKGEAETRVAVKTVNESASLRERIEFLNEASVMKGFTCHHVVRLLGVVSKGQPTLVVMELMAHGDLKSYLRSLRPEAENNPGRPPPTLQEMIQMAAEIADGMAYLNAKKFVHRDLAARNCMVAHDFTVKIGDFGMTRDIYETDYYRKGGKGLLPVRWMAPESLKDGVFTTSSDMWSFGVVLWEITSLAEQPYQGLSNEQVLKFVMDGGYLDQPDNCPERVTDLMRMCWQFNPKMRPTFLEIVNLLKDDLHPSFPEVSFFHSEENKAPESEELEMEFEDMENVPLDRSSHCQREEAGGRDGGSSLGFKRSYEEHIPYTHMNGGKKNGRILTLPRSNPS
T1 sequence (P06213 763-1382 partner limits assumed): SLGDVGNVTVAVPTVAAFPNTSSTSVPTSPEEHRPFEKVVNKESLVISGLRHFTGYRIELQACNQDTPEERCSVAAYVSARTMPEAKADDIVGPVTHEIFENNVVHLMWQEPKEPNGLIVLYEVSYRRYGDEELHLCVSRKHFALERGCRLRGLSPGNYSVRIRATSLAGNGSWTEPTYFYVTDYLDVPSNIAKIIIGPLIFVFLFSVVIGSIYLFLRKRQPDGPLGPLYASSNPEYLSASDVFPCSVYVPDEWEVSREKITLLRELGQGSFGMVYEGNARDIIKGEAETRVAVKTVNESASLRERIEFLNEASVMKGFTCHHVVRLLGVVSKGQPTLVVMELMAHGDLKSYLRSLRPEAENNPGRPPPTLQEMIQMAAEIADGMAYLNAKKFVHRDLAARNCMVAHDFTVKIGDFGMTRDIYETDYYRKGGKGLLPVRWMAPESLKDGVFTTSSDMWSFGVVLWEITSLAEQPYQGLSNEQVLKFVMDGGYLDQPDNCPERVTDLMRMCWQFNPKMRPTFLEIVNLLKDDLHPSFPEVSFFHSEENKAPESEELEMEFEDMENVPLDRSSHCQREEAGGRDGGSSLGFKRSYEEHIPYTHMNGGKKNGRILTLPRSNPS
Method in brief: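 Membranes from HEK293 cells stably expressing C9-tagged human IR-A were used in a WGA-bead SPA competition assay in 50 mM Tris-HCl pH 7.5, 150 mM NaCl, 0.1% fatty-acid-free BSA. Ten-point 3-fold dilutions were incubated 10 h at room temperature before scintillation counting. Percent specific inhibition was calculated after nonspecific-binding correction, from three independent runs.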

[1] = molecular target: T2, human holoIR-A over-expressed in HEK293 cells (Homo sapiens, UniProt P06213); assay: holoIR-A auto-phosphorylation assay (ELISA); format: cell-based
T2 construct: expressed in transfected cells; host or cells: HEK293, stably transfected
T2 sequence (P06213 28-1370 isoform P06213-2 limits assumed): as the sequence (P06213 28-1370 isoform P06213-2 limits assumed) above
T2 sequence (P06213 763-1382 partner limits assumed): as the sequence (P06213 763-1382 partner limits assumed) above
Method: Phosphorylation was quantified using an ELISA technique. Ninety-six well, flat-bottom microplates (Greiner Bio-One) were pre-coated with 2 µg mL^−1 anti-C9 monoclonal antibody (Rho 1D4; University of British Columbia)[27] in 20 mM sodium carbonate, pH 9.6, at 4 °C for overnight prior to the assay. On the assay day, plates were washed 3× with 0.1% Tween in 50 mM Tris Buffer Saline, pH 7.5 (TBST), and then blocked for greater than 1 h at room temperature (RT) with 1% BSA (Sigma) in TBST.
Stably transfected HEK293 cells over-expressing human holoIR-A containing a C-terminal C9 epitope tag ([…]), were plated at 6 × 10^4 cells per well serum-starved using 0.1% BSA in DMEM (Gibco) for overnight at standard tissue culture condition. […] After a 15-min incubation in lysis buffer at 4 °C, the lysate was transferred to anti-C9 antibody coated capture plate (Rho 1D4; University of British Columbia)[27]. […] After a 1 h incubation at room temperature, the secondary antibody was removed by washing 3× with TBST. Signal detection occurred with the addition of TMB, an HRP substrate (Pierce). After 5–10 min, the reaction was stopped by adding an equal volume of 2 M H2SO4, and the absorbance readings at 450 nm (A450) were recorded using a Envision plate reader (PerkinElmer). Samples were tested in three independent assay runs on three different days.
Percent specific response (y-axis) was plotted versus the log concentration of compound (x-axis) using Prism Version 9.3.1 (GraphPad Software). Individual measurements are provided as Source Data.

[2] = test system: [holoIR-A]-expressing IM-9 human lymphoblast cells; assay: holoIR-A accelerated dissociation assay of pre-bound 125I-insulin; format: binding; details: IM-9 cells, 1:40 dilution, 16 °C, 30 min; n = 3
Method: Ice-cold 15-25 pM ^125I-insulin solution was added to IM-9 cells and incubated at 4 °C for 2.5 h for pre-bound experiments. […] Following receptor and ^125I-insulin pre-bound, the mix was quickly centrifugated and supernatant was removed. The bound ^125I-insulin and IM-9 cells were then resuspended with 16 °C pre-equilibrated HBB, pH 7.6. The ^125I-ligand/IM-9 cell mixture was aliquoted to cold compounds at 1:40 ratio, respectively. The reactions were incubated at 16 °C for 30 min to allow dissociation of prebound ^125I-insulin and then harvested by centrifugation and aspiration of the supernatant. The radioactivity of cell pellets was determined by gamma counter (Perkin Elmer). Samples were tested in three independent assay runs on three different days. Individual measurements are provided as Source Data.

[3] = molecular target: T2, human holoIR-A over-expressed in HEK293 cells; assay: Inhibition of hIR phosphorylation by peptides, co-incubated with BHI at its EC50 (ELISA); format: cell-based
Method in brief: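 Serum-starved HEK293 cells stably over-expressing C9-tagged human holoIR-A were treated, lysed, and receptor captured on anti-C9-coated plates. Phosphorylation was detected by HRP/TMB ELISA at A450. Percent specific response was plotted against log compound concentration, with three independent runs on different days.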

[4] = primary peptide set, mean of 3 runs, read-out: hIRA Phosph EC50 Mean
[5] = Fig. 1b, HEK293 hIR-A cells, 1 h 37 °C, ELISA, errors given as SEM, n = 3 independent replicates, read-out: Auto-phosphorylation constant EC50

Row | SMILES | affinity for hIR (in words) (human IR-A (holoIR-A); comparable to that of BHI) | pKi (human IR-A (holoIR-A)) | pEC50 [1, 4] | hIRA Phosph EC50 Run 1 ([1]; primary peptide set) | hIRA Phosph EC50 Run 2 ([1]; primary peptide set) | hIRA Phosph EC50 Run 3 ([1]; primary peptide set) | weaker activity than BHI in an hIR autophosphorylation assay ([1]; relative to biosynthetic human insulin) | pEC50 [1, 5] | effect on dissociation of pre-bound I125-insulin tracer from native membrane-expressed hIR (in words) [2] | weaker affinity for hIR-A than BHI (human IR-A (holoIR-A)) | activity in hIR autophosphorylation assay (in words) [1] | hIRA Phosph IC50 Run 1 ([3]; inhibition of insulin-stimulated phosphorylation, BHI at its EC50, run 1) | hIRA Phosph IC50 Run 2 ([3]; inhibition of insulin-stimulated phosphorylation, BHI at its EC50, run 2) | hIRA Phosph IC50 Run 3 ([3]; inhibition of insulin-stimulated phosphorylation, BHI at its EC50, run 3) | pIC50 ([3]; read-out: hIRA Phosph IC50 Mean)
1 | CC[C@H](C)[C@H](NC(=O)[C@H](CCCCN)NC(=O)C(C)(C)NC(=O)[C@H](Cc1c[nH]c2ccccc12)NC(=O)[C@H](CCC(=O)O)NC(=O)[C@H](CCC(N)=O)NC(=O)[C@H](CCC(=O)O)NC(=O)[C@H](CC(C)C)NC(=O)[C@H](CO)NC(=O)Cc1ccc(CN)cc1)C(=O)N[C@@H](CCC(=O)O)C(=O)N[C@H]1CSSC[C@@H](C(=O)N2CCC[C@H]2C(=O)N2CCC[C@H]2C(=O)N[C@@H](CCCCN)C(=O)N[C@@H](CCCCN)C(N)=O)NC(=O)[C@H](CCCCN)NC(=O)CNC(=O)[C@H](Cc2ccc(O)cc2)NC(=O)[C@H](C(C)C)NC(=O)[C@H](CCC(=O)O)NC1=O [IM459N21] (X1-SLEQEW[Aib]KIECEVYGKCPPKK-NH2; disulfide 11-17) |  | 7.97 | < 6.00 | >1000 nM | >1000 nM | >1000 nM |  | < 6.00 | effect of IM459 is fully reproduced |  |  |  |  |  | 
2 | COc1ccc(C[C@H](NC(=O)[C@H](C)NC(=O)[C@H](CCCCN)NC(=O)[C@H](CCCCN)NC(=O)[C@@H]2CCCN2C(C)=O)C(=O)N[C@@H](Cc2ccc(O)cc2)C(=O)N[C@@H](CCCCN)C(=O)N[C@@H](Cc2c[nH]c3ccccc23)C(=O)N[C@@H](Cc2ccccc2)C(=O)N[C@@H](CCC(=O)O)C(=O)N[C@@H](CCCNC(=N)N)C(=O)N[C@@H](CCC(N)=O)C(=O)N[C@@H](CC(C)C)C(=O)N[C@@H](CCCCN)C(N)=O)cc1 [IM459C14] (Ac-PKKAY(Me)YKWFERQLK-NH2) |  | 6.67 | < 6.00 | >1000 nM | >1000 nM | >1000 nM |  | < 6.00 | no effect |  |  |  |  |  | 
3 | CC[C@H](C)[C@H](NC(=O)[C@H](CCC(N)=O)NC(=O)[C@H](C)NC(=O)[C@H](Cc1c[nH]c2ccccc12)NC(=O)[C@H](CCC(=O)O)NC(=O)[C@H](CCC(=O)O)NC(=O)[C@H](CCC(=O)O)NC(=O)[C@H](CC(C)C)NC(=O)[C@H](CO)NC(=O)Cc1ccccc1)C(=O)N[C@@H](CCC(=O)O)C(=O)N[C@H]1CSSC[C@@H](C(=O)N2CCC[C@H]2C(=O)N2CCC[C@H]2C(=O)N[C@@H](CO)C(=O)N[C@@H](CCC(=O)O)C(=O)N[C@@H](CO)C(N)=O)NC(=O)[C@H](CCCNC(=N)N)NC(=O)CNC(=O)[C@H](Cc2ccc(O)cc2)NC(=O)[C@H](C(C)C)NC(=O)[C@H](CCC(=O)O)NC1=O [IM172N22] (PhAc-SLEEEWAQIECEVYGRCPPSES-NH2; disulfide 11-17) |  | 8.51 | < 6.00 | >1000 nM | >1000 nM | >1000 nM |  | < 6.00 |  | ~10 fold | devoid of detectable activity | 17 nM | 17 nM | 17 nM | 7.77
4 | COc1ccc(C[C@H](NC(=O)[C@H](CO)NC(=O)[C@H](CCC(=O)O)NC(=O)[C@H](CO)NC(=O)[C@@H]2CCCN2C(C)=O)C(=O)N[C@@H](Cc2ccc(O)cc2)C(=O)N[C@@H](CCCCN)C(=O)N[C@@H](Cc2c[nH]c3ccccc23)C(=O)N[C@@H](Cc2ccccc2)C(=O)N[C@@H](CCC(=O)O)C(=O)N[C@@H](CCCNC(=N)N)C(=O)N[C@@H](CCC(N)=O)C(=O)N[C@@H](CC(C)C)C(N)=O)cc1 [IM172C13] (Ac-PSESY(Me)YKWFERQL-NH2) |  | 6.51 | < 5.00 | >10000 nM | >10000 nM | >10000 nM |  | < 5.00 |  | ~1000 fold | devoid of detectable activity |  |  |  | 

Second part, led by results:

Row | affinity for hIR (in words) (human IR-A (holoIR-A); comparable to that of BHI) | pKi (human IR-A (holoIR-A)) | pEC50 [1, 4] | hIRA Phosph EC50 Run 1 ([1]; primary peptide set) | hIRA Phosph EC50 Run 2 ([1]; primary peptide set) | hIRA Phosph EC50 Run 3 ([1]; primary peptide set) | weaker activity than BHI in an hIR autophosphorylation assay ([1]; relative to biosynthetic human insulin) | pEC50 [1, 5] | SMILES | effect on dissociation of pre-bound I125-insulin tracer from native membrane-expressed hIR (in words) [2] | weaker affinity for hIR-A than BHI (human IR-A (holoIR-A)) | activity in hIR autophosphorylation assay (in words) [1] | hIRA Phosph IC50 Run 1 ([3]; inhibition of insulin-stimulated phosphorylation, BHI at its EC50, run 1) | hIRA Phosph IC50 Run 2 ([3]; inhibition of insulin-stimulated phosphorylation, BHI at its EC50, run 2) | hIRA Phosph IC50 Run 3 ([3]; inhibition of insulin-stimulated phosphorylation, BHI at its EC50, run 3) | pIC50 ([3]; read-out: hIRA Phosph IC50 Mean)
5 | sub-nM | 9.59 | 8.15 | 6.352 nM | 8.068 nM | 6.757 nM | ~2.5 fold |  | CC[C@H](C)[C@H](NC(=O)[C@H](CCC(N)=O)NC(=O)[C@H](C)NC(=O)[C@H](Cc1c[nH]c2ccccc12)NC(=O)[C@H](CCC(=O)O)NC(=O)[C@H](CCC(=O)O)NC(=O)[C@H](CCC(=O)O)NC(=O)[C@H](CC(C)C)NC(=O)[C@H](CO)NC(=O)Cc1ccccc1)C(=O)N[C@@H](CCC(=O)O)C(=O)N[C@H]1CSSC[C@@H](C(=O)N2CCC[C@H]2C(=O)N2CCC[C@H]2C(=O)N[C@@H](CO)C(=O)N[C@@H](CCC(=O)O)C(=O)N[C@@H](CO)C(=O)N[C@@H](Cc2ccc(OC)cc2)C(=O)N[C@@H](Cc2ccc(O)cc2)C(=O)N[C@@H](CCCCN)C(=O)N[C@@H](Cc2c[nH]c3ccccc23)C(=O)N[C@@H](Cc2ccccc2)C(=O)N[C@@H](CCC(=O)O)C(=O)N[C@@H](CCCNC(=N)N)C(=O)N[C@@H](CCC(N)=O)C(=O)N[C@@H](CC(C)C)C(N)=O)NC(=O)[C@H](CCCNC(=N)N)NC(=O)CNC(=O)[C@H](Cc2ccc(O)cc2)NC(=O)[C@H](C(C)C)NC(=O)[C@H](CCC(=O)O)NC1=O [IM172] (PhAc-SLEEEWAQIECEVYGRCPPSESY(Me)YKWFERQL-NH2; disulfide 11-17) | trend similarly, but more weakly |  |  |  |  |  | 
6 |  | 8.50 | 8.22 |  |  |  |  |  | CC(C)C[C@H](NC(=O)[C@H](CCC(N)=O)NC(=O)[C@H](CCCNC(=N)N)NC(=O)[C@H](CCC(=O)O)NC(=O)[C@H](Cc1ccccc1)NC(=O)[C@H](Cc1c[nH]c2ccccc12)NC(=O)[C@H](CC(=O)O)NC(=O)[C@H](Cc1ccc(O)cc1)NC(=O)[C@H](Cc1ccccc1)NC(=O)[C@H](CO)NC(=O)[C@H](CCC(=O)O)NC(=O)[C@H](CC(=O)O)NC(=O)[C@H](CC(C)C)NC(=O)[C@H](CO)NC(=O)CNC(=O)[C@H](CO)NC(=O)[C@@H]1CCCN1C(=O)[C@@H]1CSSC[C@H](NC(=O)[C@H](CCC(=O)O)NC(=O)[C@@H](NC(=O)[C@H](CCC(N)=O)NC(=O)[C@H](C)NC(=O)[C@H](Cc2c[nH]c3ccccc23)NC(=O)[C@H](CCC(=O)O)NC(=O)[C@H](CCC(=O)O)NC(=O)[C@H](CCC(=O)O)NC(=O)[C@H](CC(C)C)NC(=O)[C@@H](N)CO)C(C)C)C(=O)N[C@@H](CCC(=O)O)C(=O)N[C@@H](C(C)C)C(=O)N[C@@H](Cc2ccc(O)cc2)C(=O)NCC(=O)N[C@@H](CCCNC(=N)N)C(=O)NCC(=O)N1)C(=O)NCC(=O)O [Peptide S519, reference compound] (H-SLEEEWAQVECEVYGRGCPSGSLDESFYDWFERQLG-OH; disulfide 11-18) |  |  |  |  |  |  | 
